Laboratory results published in patent US20240415802A1, “GENISTEIN FOR ASTHMA TREATMENT” (University of South Florida, priority 2022, published 2024).

Legend:
PAI-1 [1] = molecular target: T1, PAI-1 (Mus musculus, UniProt P22777); details: OVA challenge model of allergic asthma; cited from earlier work
T1 sequence (P22777 23-402): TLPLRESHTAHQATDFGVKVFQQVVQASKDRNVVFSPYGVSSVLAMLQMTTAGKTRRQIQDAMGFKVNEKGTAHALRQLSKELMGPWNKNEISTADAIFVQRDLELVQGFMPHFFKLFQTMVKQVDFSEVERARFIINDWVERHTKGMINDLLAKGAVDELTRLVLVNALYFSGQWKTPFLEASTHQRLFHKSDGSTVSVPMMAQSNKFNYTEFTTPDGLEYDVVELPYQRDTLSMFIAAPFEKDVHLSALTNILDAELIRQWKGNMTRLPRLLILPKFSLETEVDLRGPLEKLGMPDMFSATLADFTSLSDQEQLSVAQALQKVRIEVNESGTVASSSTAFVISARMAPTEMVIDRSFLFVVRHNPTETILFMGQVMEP

PAI-1 4G promoter [2] = assay: PAI-1 promoter luciferase reporter assay in TGF-β stimulated NHBE cells; format: cell-based, human; details: NHBE cells transfected with 4G vector; TGF-β 2 ng/mL 6 hours; genistein pretreatment 5 μM 1 hour; p=0.007
Protocol: Normal human bronchial epithelial cells (NHBE) and a human mast cell line, LAD2, were cultured and transfected with luciferase plasmids containing a 4G, 5G or pGL3-basic vector (empty backbone). […] (FIG. 1B)
Normal human bronchial epithelial cells (NHBE) were cultured in 5% CO2 chamber at 37° C. with epithelial cell growth basal media (BEGM, Lonza). Cells were seeded on type 1 collagen-coated plate. Prior to transfection and stimulation, NHBEs were cultured without hydrocortisone (HC) for a day or two, at ˜80% confluency in 12 wells. Passage 2 or 3 was used for the experiment. Cells were transfected with luciferase plasmids containing different Pai-1 polymorphisms, 4G4G, 5G5G, pGL3-luciferase reporter basic vector (empty backbone, Promega, Madison, WI, USA) using Lipofectamine 3000 transfection reagent (Invitrogen, Waltham, MA, USA). Cells were stimulated for 6 hours with TGF-β (2 ng/mL, R&D Systems, Minneapolis, MN, USA) with and without genistein (Sigma-Aldrich, St. Louis, MO, USA) pretreatment (5 μM) for 1 hour. Cells were harvested and lysed in 1×PLB reagent prior to performing Dual-luciferase report assay (DLR assay, Promega, Madison, WI, USA). The firefly luciferase activity and Renilla luciferase activity were measured sequentially.

PAI-1 4G promoter [3] = assay: PAI-1 promoter luciferase reporter assay in stimulated LAD2 mast cells; format: cell-based, human; details: cells transfected with 4G vector, genistein pretreatment 5 μM 1 hour
Protocol: LAD2 cells, a human mast cell line, were cultured and transfected with luciferase plasmids containing a 4G, 5G or pGL3-basic vector to determine the promotor activity. These LAD2 cells were stimulated overnight with IgE (100 ng/mL) and streptavidin (500 ng/mL) (IgE+streptavidin) for IgE-receptor cross-linking or Ionomycin (100 ng/mL) and phorbol myristate acetate (PMA, 10 ng/ml) (Ionomycin+PMA) with or without genistein pretreatment (5 μM) for 1 hour. […] LAD2 cells transfected with the 5G vector didn't increase promoter activity by IgE+Streptavidin/Ionomycin+PMA stimulation compared to no treatment (FIGS. 2C and 2D).
Human mast cells (LAD2) were grown in complete serum-free growth media (Stem pro-34 with the supplement, penicillin/streptomycin, L-glutamine and SCF recombinant, Invitrogen, Waltham, MA, USA). Cells were cultured in cytokine-free media (without SCF recombinant) at density of ˜0.5×10^6 per mL for a day prior to transfection and stimulation. Cells were transfected with luciferase plasmids containing different Pai-1 polymorphisms, 4G4G, 5G5G, pGL3-luciferase reporter basic vector (empty backbone, Promega, Madison, WI) using Lipofectamine 3000 transfection reagent (Invitrogen, Waltham, MA, USA). […] The firefly luciferase activity and Renilla luciferase activity were measured sequentially.

PAI-1 [4] = details: normal bronchial epithelial cells; cited from earlier work

Row | Structure (SMILES) | Airway hyperresponsiveness (AHR) (PAI-1 [1]) | Degree of eosinophilic airway inflammation (PAI-1 [1]) | PAI-1 4G promoter activity increased by TGF-β1 stimulation (PAI-1 4G promoter [2]) | PAI-1 4G promoter activity increased by IgE+Streptavidin stimulation (PAI-1 4G promoter [3]; IgE 100 ng/mL + streptavidin 500 ng/mL, p=0.05) | PAI-1 4G promoter activity increased by Ionomycin+PMA stimulation (PAI-1 4G promoter [3]; Ionomycin 100 ng/mL + PMA 10 ng/ml, p<0.05) | TGF-β1-induced PAI-1 production (PAI-1 [4])
1 | O=C(O)C(=O)c1cn(Cc2ccccc2)c2ccc(-c3ccc(OC(F)(F)F)cc3)cc12 [Tiplaxtinin] | reduced | reduced | – | – | – | –
2 | O=c1c(-c2ccc(O)cc2)coc2cc(O)cc(O)c12 [genistein, 5,7-dihydroxy-3-(4-hydroxyphenyl)-chromen-4-onc] | – | – | blocked by genistein pretreatment significantly | blocked by genistein pretreatment significantly | blocked by genistein pretreatment significantly | downregulation
